By EC50 is commonly meant the concentration at which the effect is half-maximal. By IC50 is commonly meant the concentration that inhibits the measured activity by half.

The text below walks through data of patent publication US20220363662A1, “COMPOUNDS AS LXR AGONISTS” (Integral Biosciences Privated Limited, priority 2021, published 2022).

The target of assay [1] is T1, LXR beta (Homo sapiens, UniProt P55055).
T1 construct: 5 μL of 4×LXR beta-LBD was added to each well (final concentration 5 nM); purchased Thermofisher PV4658
T1 sequence (P55055 222-460 limits assumed): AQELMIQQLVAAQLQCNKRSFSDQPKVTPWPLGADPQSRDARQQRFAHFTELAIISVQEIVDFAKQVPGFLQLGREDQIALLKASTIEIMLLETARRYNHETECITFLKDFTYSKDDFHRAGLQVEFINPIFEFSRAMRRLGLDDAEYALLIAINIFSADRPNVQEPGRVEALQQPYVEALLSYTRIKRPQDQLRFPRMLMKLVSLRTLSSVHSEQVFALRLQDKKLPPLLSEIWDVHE
Briefly: LXR beta agonist assay (Lanthascreen TR-FRET). It is filed as biochemical. Conditions: LXR beta-LBD 5 nM, read-out: LXR-β EC50. The method in brief: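 TR-FRET coactivator recruitment: 5 nM LXR beta-LBD with 100 nM Fl-D22 peptide and 10 nM Tb-anti-GST antibody (final) in Coregulator Buffer G, 60 min at 22° C, read hourly up to 4 hours. Duplicate three-fold titrations from 30 μM; EC50 by variable-slope nonlinear regression.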
In general terms: In TR-FRET formats the signal depends on donor and acceptor labels being close together.

The test system of assay [2] is A549. Briefly: Cell viability assay (resazurin) in A549. Conditions: Homo sapiens, 96 hr exposure. Type of assay: cell-based. As for the experimental part: (§1) HepG2 (ATCC® HB-8065™), hepatocellular carcinoma, A549 (ATCC® CCL-185™), lung epithelial carcinoma, MCF7 (ATCC® HTB-22™), mammary gland epithelial carcinoma, MDA-MB-231 (ATCC® HTB-26™), TNBC, MiaPaCa-2 (ATCC® CRL-1420™) & Panc-1 (ATCC® CRL-1469™), pancreatic epithelial carcinoma, HCT116 (ATCC® CCL-247™), colon epithelial carcinoma and U87MG (ATCC® HTB-14™), brain epithelial carcinoma cell lines respectively were seeded in the respective medium (DMEM, Cat #10569044 with 10% FBS, Cat #16000044; Gibco for HepG2, A549, MCF7, MDA-MB-231, MiaPaCa-2, Panc-1, HCT116 and MEM, Cat #11095080 with 10% FBS for U87MG). Cells were allowed to grow at 37° C. for 24 hr in 5% CO2 (culture conditions) in a Nuaire incubator (humidified). Serially diluted compounds (100 μl) were added to the culture plate 24 hr later and the cultures were further incubated in culture conditions for 96 hr. Experiment was terminated at the completion of 96 hr exposure to the drug by replacing the medium with 100 μl of 1 mM of resazurin (R7017; Sigma) prepared in culture medium and the plates were further incubated in culture conditions for 4 hr. Fluorescence was then measured using a multimodal plate reader (Biotek Synergy Neo) at an excitation wavelength of 535 nm and emission wavelength of 590 nm to obtain relative fluorescence units. Data analysis was done by subtracting the background fluorescence (only medium blank) value from each reading and then normalizing with the vehicle control (DMSO treated cells) to obtain percent survival/proliferation. Percent survival at different doses was used to calculate IC50 by fitting the curve to the “four-parameter variable slope logistic model” using Prism Graph Pad.

Assay [3] relates to HCT116. Briefly: Cell viability assay (resazurin) in HCT116. Type of assay: cell-based. Conditions: Homo sapiens, HCT-116; 96 hr exposure. On the procedure:
as §1
(Alamar Blue is a resazurin reagent that responds to reducing activity.)

In assay [4] the test system is HepG2. Briefly: Cell viability assay (resazurin) in HepG2. Type of assay: cell-based. Conditions: Homo sapiens, 96 hr exposure. As for the experimental part: as §1
Assay [5] relates to MCF7. Description: Cell viability assay (resazurin) in MCF7. Conditions: Homo sapiens, 96 hr exposure. It is filed as cell-based. On the procedure:
as §1

Assay [6] relates to MDA-MB-231. Description: Cell viability assay (resazurin) in MDA-MB-231. Conditions: Homo sapiens, 96 hr exposure, read-out: MDA_MB-231 Cell IC50. Type of assay: cell-based. As for the experimental part: as §1
The subject of assay [7] is THP1. Description: Cell viability assay in THP1. It is filed as cell-based. Conditions: Homo sapiens, THP-1.
The target in assay [8] is T2, LXR alpha (Homo sapiens, UniProt Q13133).
T2 construct: 5 μL of 4×LXR alpha-LBD was added to each well (final concentration 2.5 nM); purchased Thermofisher PV4655
T2 sequence (Q13133 209-447 limits assumed): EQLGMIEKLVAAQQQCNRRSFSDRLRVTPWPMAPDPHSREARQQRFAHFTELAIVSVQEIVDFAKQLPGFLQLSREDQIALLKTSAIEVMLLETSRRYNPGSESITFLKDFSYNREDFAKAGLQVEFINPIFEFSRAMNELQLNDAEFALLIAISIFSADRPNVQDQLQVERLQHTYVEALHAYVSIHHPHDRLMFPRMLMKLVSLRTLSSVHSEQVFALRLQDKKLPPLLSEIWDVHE
Briefly: LXR alpha agonist assay (Lanthascreen TR-FRET). Type of assay: biochemical. Conditions: LXR alpha-LBD 2.5 nM, read-out: LXR-α EC50. As for the experimental part: EC50 values of compounds against LXR alpha were determined at Integral BioSciences (India) using Lanthascreen TR-FRET (Thermofisher, Cat #PV4655). Assay was performed in a 20 μL final volume in a Black 384-well plate (Corning, Cat #4511). Dose response curve for the compounds were prepared in duplicates with starting concentration at 30 μM and a three-fold titration was performed. The reaction buffer consisted of TR-FRET Coregulator Buffer H. To the compound dilution, 5 μL of 4×LXR alpha-LBD was added to each well (final concentration 2.5 nM). An equal volume (5 μL) containing 4×Fl-D22/Tb-anti GST antibody (final concentration 250 nM/10 nM) was added to initiate the enzyme reaction and the reaction was incubated for 60 min at 22° C. after which the plates were read using BioTek Plate reader for TR-FRET every hour up to 4 hours.
Analysis was done using the standard curve by non-linear regression, variable slope inhibitor curve fits (Graph-Pad Prism) and EC50's of compounds were determined wherever possible.

Assay [9] has as its system ApoE. Briefly: THP-1 Western blotting assay (ApoE). Type of assay: cell-based. Conditions: 30 μM; for ApoE normalized with Vehicle treated (DMSO) Control: 18 hour, PMA-differentiated THP-1 cells, densitometry, control = 100; for Fold Difference: ApoE vs DMSO control, THP-1 cells. As for the experimental part: THP-1 cells (2×10^6 cells/well) were differentiated with PMA (10 ng/mL) for 24 following which the cells were treated with different concentrations (30 μM and 10 μM) of compound for 18 hour in cell culture conditions (5% CO2, 37° C.). The cells were lysed using 1×RIPA (Cat #9806; Cell Signaling Technologies) buffer with Protease inhibitor (1×) (Cat #P830, Sigma) and sonicated. Whole cell lysate was collected and protein estimation was done using Bradford Reagent. The samples were subjected to SDS PAGE Electrophoresis and the protein bands were transferred onto PVDF membrane using wet transfer. The membrane was further blocked with 5% non-fat dry milk and incubated with primary antibody (ApoE; 1:1000, Cat #D7I9N, ABCA1; 1:1000, Cat #96292S; Cell Signaling Technologies) and secondary antibody (Anti rabbit IgG 1:2000, Cat #7074S, Cell Signaling Technologies). The membrane was then developed using ECL reagent (Ref. 32106, Thermo Fisher Scientific) in a gel doc system. The expression of protein was quantified by densitometry analysis.
On the technique in general: Immunoblotting shows a protein as a band on a membrane.

With `CC(C)C(O)(C(=O)N1CCC2(CC1)CN(C1CCN(c3ccc(C(=O)N(C)C)c(Cl)c3)CC1)C2)C(F)(F)F` (centres unmarked) [Compound 1.54, 2-chloro-4-(4-(7-(2-hydroxy-3-methyl-2-(trifluoromethyl)butanoyl)-2,7-diazaspiro[3.5]nonan-2-yl)piperidin-1-yl)-N,N-dimethylbenzamide], in assay [1], the concentration for a half-maximal effect (EC50) was more than 30 µM. In addition, the IC50 in assay [2], in assay [3], in assay [4], in assay [5], in assay [6] and in assay [7] was more than 30 µM each time.
Regarding `CN(C)C(=O)c1ccc(N[C@H]2CCCN(C3CCN(C(=O)[C@](O)(c4ccccc4)C(F)(F)F)CC3)C2)cc1Cl` [Compound 1.53, 2-chloro-N,N-dimethyl-4-((S)-1′-((R)-3,3,3-trifluoro-2-hydroxy-2-phenylpropanoyl)-1,4′-bipiperidin-3-ylamino)benzamide], in [1], the EC50 was found to be 16.9 µM. Further, the IC50 in [2], in assay [3], in [4], in [5], in assay [6] and in [7] was more than 30 µM each time.
For `CN(C)C(=O)c1ccc(-c2nnc(N3CCC4(CCN(S(=O)(=O)c5ccccc5Cl)CC4)C3)s2)cc1Cl` [Compound 1.50, 2-chloro-4-(5-(8-(2-chlorophenylsulfonyl)-2,8-diazaspiro[4.5]decan-2-yl)-1,3,4-thiadiazol-2-yl)-N,N-dimethylbenzamide], the IC50 in [2] was found to be 14.4 µM; in assay [3], 15.4 µM; in assay [4], 23.8 µM; in assay [5], 14.5 µM; in assay [6], 17 µM; in assay [7], 14.6 µM.
For `CN(C)C(=O)c1ccc(-c2nnc(N3CC4(CCN(S(=O)(=O)c5ccccc5Cl)CC4)C3)s2)cc1Cl` [Compound 1.51, 2-chloro-4-(5-(7-(2-chlorophenylsulfonyl)-2,7-diazaspiro [3.5]nonan-2-yl)-1,3,4-thiadiazol-2-yl)-N,N-dimethylbenzamide], the IC50 in assay [2] was 4.47 µM; in assay [3] it was 4.46 µM; in assay [4] it was more than 29 µM; in assay [5], 4.18 µM; in assay [6], 5.44 µM; in assay [7] it was 5.93 µM.
Consider `CC(C)C(O)(C(=O)N1CCC(N2CC[C@@H](Nc3ccc(C(=O)N(C)C)c(Cl)c3)C2)CC1)C(F)(F)F` (stereo partly drawn) [Compound 1.58, 2-chloro-4-((3R)-1-(1-(2-hydroxy-3-methyl-2-(trifluoromethyl)butanoyl)piperidin-4-yl)pyrrolidin-3-ylamino)-N,N-dimethylbenzamide], for which the IC50 in assay [2], in assay [3], in assay [4], in assay [5], in assay [6] and in assay [7] was more than 30 µM each time.
For `CC(C)[C@@](O)(C(=O)N1CCC(N2CC(Nc3ccc(C(=O)N(C)C)c(Cl)c3)C2)CC1)C(F)(F)F` (single isomer, unassigned) [Compound 1.44], the 50% effective concentration (EC50) in assay [8] is more than 30 µM; in [1] it was 10.9 µM. Besides, the IC50 in assay [2], in assay [3], in assay [6] and in assay [7] was more than 30 µM throughout. In addition, in assay [9], the “ApoE normalized with Vehicle treated (DMSO) Control” value was 156.5. In assay [9], the “Fold Difference” value is given as 1.57.
For `CN(C)C(=O)c1ccc(N2CCC(N3CC4(CN(C(=O)[C@](O)(c5ccccc5)C(F)(F)F)C4)C3)CC2)cc1Cl` [Compound 1.55, 2-chloro-N,N-dimethyl-4-(4-(6-((R)-3,3,3-trifluoro-2-hydroxy-2-phenylpropanoyl)-2,6-diazaspiro[3.3]heptan-2-yl)piperidin-1-yl)benzamide], in assay [1], the 50% effective concentration (EC50) worked out at 16.3 µM. In addition, the IC50 in assay [2], in assay [3], in assay [4], in assay [5], in assay [6] and in assay [7] was more than 30 µM throughout.
In the case of `CN(C)C(=O)c1ccc(N[C@@H]2CCN(C3CCN(C(=O)[C@](O)(c4ccccc4)C(F)(F)F)CC3)C2)cc1Cl` [Compound 1.57, 2-chloro-N,N-dimethyl-4-((R)-1-(1-((R)-3,3,3-trifluoro-2-hydroxy-2-phenylpropanoyl)piperidin-4-yl)pyrrolidin-3-ylamino)benzamide], in [1], the EC50 stood at 2.82 µM. Further, the IC50 in assay [2], in [3], in [4], in assay [5], in assay [6] and in assay [7] was more than 30 µM each time.
`CN(C)C(=O)c1ccc(NC2CN(C3CCN(C(=O)[C@@](O)(c4ccccc4)C(F)(F)F)CC3)C2)cc1Cl` (single isomer, unassigned) [Compound 1.10]: the EC50 in assay [8] came to 26.1 µM; in assay [1], 0.141 µM. Besides, the IC50 was more than 30 µM in assay [2], more than 29.6 µM in assay [4] and more than 30 µM in assay [6]. Besides, the “ApoE normalized with Vehicle treated (DMSO) Control” value in assay [9] amounted to 221.8. Moreover, in assay [9], the “Fold Difference” value was determined as 2.22.
`CN(C)C(=O)c1ccc(NC2CN(C3CCN(C(=O)C(F)(F)c4ccccc4Cl)CC3)C2)cc1Cl` [Compound 1.52, 2-chloro-4-(1-(1-(2-(2-chlorophenyl)-2,2-difluoroacetyl)piperidin-4-yl)azetidin-3-ylamino)-N,N-dimethylbenzamide]: in assay [1], the EC50 is 5.68 µM. The IC50 in assay [2], in assay [3], in assay [4], in assay [5], in [6] and in assay [7] was more than 30 µM throughout.
